Laboratory results as given in EP4560029A1, “METHOD FOR THE DIAGNOSIS OF ANEURYSM, AND INHIBITORS FOR USE IN THE PREVENTION OR TREATMENT OF ANEURYSM” (Fundacion Instituto De Investigacion Sanitaria Fundacion …, priority 2023, dated 2025).

Legend:
shFbn1-VSMCs [1] = test: DON incubation of Fbn1-silenced primary VSMCs: immunoblot, flow cytometry, qPCR; assay type: cell-based, murine
Procedure: (§1) Isolation and culture of primary mouse VSMCs were previously described. Tissue was digested with a solution of collagenase and elastase (Worthington Biochem) until a single-cell suspension was obtained. All experiments with primary VSMCs were performed during passages 2-7. Lentiviral transduction was performed in VSMCs over 5 h at a multiplicity of infection = 3. The medium was then replaced with fresh DMEM supplemented with 10% FBS and cells were cultured for five more days, treated with NR for five more days and serum-starved for 16h. The HEK-293T (CRL-1573) and Jurkat (Clone E6-1, TIB-152) cell lines, required for high-titer lentivirus production and lentivirus titration respectively, were purchased from ATCC. The experiments were performed during passages 5-10. All cells tested negative for Mycoplasma.
The GFPT2 and GFP coding sequence was obtained from Origene. Lentiviruses expressing shRNA targeting murine Fbnl, and control shRNA were purchased from Sigma-Aldrich. Pseudo-typed lentiviruses were produced by transient calcium phosphate transfection of HEK-293T cells and concentrated from culture supernatant by ultracentrifugation (2 hours at 128,000xg; Ultraclear Tubes; SW28 rotor and Optima L-100 XP Ultracentrifuge; Beckman). Viruses were suspended in cold sterile PBS and titrated by transduction of Jurkat cells for 48h. Transduction efficiency (GFP-expressing cells and Puromycin resistant-cells) and cell death (propidium iodide staining) were quantified by flow cytometry.
Aortas were extracted after perfusion with 5 ml saline solution, and the adventitia layer was discarded. Liquid nitrogen frozen tissue was homogenized using a cold-mortar and an automatic bead homogenizer (MagNA Lyzer, Roche). Total RNA was isolated with Trizol (Life Technologies). […] The amount of target mRNA in samples was estimated by the 2-CT relative quantification method, using B2M, YWHAZ and PP1A for normalization. Fold ratios were calculated relative to mRNA expression levels from controls. […]

Fbn1^C1039G/+ mice [2] = test: DON by osmotic minipumps in Marfan mouse model: aortic ultrasound, blood pressure, histology, immunoblot, qPCR, RNA-seq; assay type: in vivo
Procedure: (§2) Marfan mouse model which harbor a Fbn1^C1039G/+ allele (JAX stock #012885). Wild-type littermates were used as controls for Marfan mice. DON dissolved in saline, (Sigma-Aldrich), at 5 ng* kg^-1 min^-1 and ISRIB (MedChemExpress) at 10mg* kg^-1 min^-1 were infused using subcutaneous osmotic minipumps (Model 2004, Alzet Corp). NR (Novalix) was administered intraperitoneally at 1000 mg/kg in saline every other day. Mice were housed at the pathogen-free animal facility of the CNIC and CBMSO following the animal care standards of the institution. Animal procedures were approved by the CNIC and CBMSO-UAM Ethics Committee and the Madrid regional authorities and conformed with EU Directive 2010/63EU and Recommendation 2007/526/EC regarding the protection of animals used for experimental and other scientific purposes, enforced in Spanish law under Real Decreto 1201/2005.
(§3) Arterial blood pressure (BP) was measured by the mouse-tail cuff method using the automated BP-2000 Blood Pressure Analysis System (Visitech Systems, Apex, NC, USA). Mice were trained for BP measurements every day for five consecutive days. After training period, BP was measured one day before treatment to determine the baseline BP values in each mouse cohort. BP measurements were recorded in mice located in a tail-cuff restrainer over a warmed surface (37 °C). Fifteen consecutive systolic and diastolic BP measurements were made, and the last 10 readings per mouse were recorded and averaged. For in vivo ultrasound images, the aortic diameter was monitored in isoflurane-anesthetized mice (2% isoflurane) by highfrequency ultrasound with a VEVO 2100 echography device (VisualSonics, Toronto, Canada) at 30-micron resolution. Maximal internal aortic diameters were measured at diastole using VEVO 2100 software, version 1.5.0.
Aortas were extracted after perfusion with 5 ml saline solution, and the adventitia layer was discarded. Liquid nitrogen frozen tissue was homogenized using a cold-mortar and an automatic bead homogenizer (MagNA Lyzer, Roche). Total RNA was isolated with Trizol (Life Technologies). Total RNA (1 µg) was first digested with DNAse and reverse-transcribed with Maxima First Strand cDNA Synthesis Kit (ThermoFisher). For analysis of mtDNA levels, total DNA from cells and tissues was extracted with the SurePrep kit (Fisher Scientific) or Trizol respectively, according to the manufacture's guidelines. qPCR reactions were performed in triplicate with SYBR master mix (Promega), according to the manufacturer's guidelines. To examine probe specificity, we conducted a post-amplification melting-curve analysis. For each reaction, only one melting-temperature (Tm) peak was produced. The amount of target mRNA in samples was estimated by the 2-CT relative quantification method, using B2M, YWHAZ and PP1A for normalization. Fold ratios were calculated relative to mRNA expression levels from controls.
Aortas were extracted after perfusion of cold saline solution and the adventitia layer was discarded. Frozen tissue was homogenized, and total RNA was isolated with Trizol ([…]). RNA from Libraries were prepared according to the instructions of the Kit "NEBNext Ultra Directional RNA Library Prep kit for Illumina" (New England Biolabs), following the protocol "Poly(A) mRNA Magnetic Isolation Module". The input yield of total RNA to start the protocol was >300 ng quantified by an Agilent 2100 Bioanalyzer using a RNA 6000 nano LabChip kit. The obtained libraries were validated and quantified by an Agilent 2100 Bioanalyzer using a DNA7500 LabChip kit and an equimolecular pool of libraries was titrated by quantitative PCR using the "Kapa-SYBR FAST qPCR kit forLightCycler480" (Kapa BioSystems) and a reference standard for quantification. After processing on the Illumina HiSeq 2500 instrument, FastQ files were generated containing nucleotide data and quality scores for each position. RNA-seq reads were mapped to the Mus musculus reference genome, GRCm38.p6, using Hisat2 v2.1.0 software. […]

Fbn1^+/+ mice = test: Glucosamine in drinking water to fuel HBP, wild-type mice: aortic ultrasound, tail-cuff blood pressure, aortic histology; assay type: in vivo, mouse
Procedure: as §2, §3
After euthanization by CO2 inhalation, mice were perfused with saline. […] Elastic lamina breaks, defined as interruptions in the elastic fibers, were counted in the entire medial layer of three consecutive cross-sections per mouse, using 4-16 mice per experiment, and the mean number of breaks was calculated. […]

Fbn1^C1039G/+ mice [3] = test: Glucosamine in drinking water to fuel HBP, Marfan mouse model: aortic ultrasound, aortic histology; assay type: in vivo
Procedure: (§4) Marfan mouse model which harbor a Fbn1^C1039G/+ allele (JAX stock #012885). Wild-type littermates were used as controls for Marfan mice. DON dissolved in saline, (Sigma-Aldrich), at 5 ng* kg^-1 min^-1 and ISRIB (MedChemExpress) at 10mg* kg^-1 min^-1 were infused using subcutaneous osmotic minipumps (Model 2004, Alzet Corp). NR (Novalix) was administered intraperitoneally at 1000 mg/kg in saline every other day. Mice were housed at the pathogen-free animal facility of the CNIC and CBMSO following the animal care standards of the institution. […]
as §3, with “Mice were trained for BP measurements every day for five consecutive days.” left out, “1.5.0. […]” for “1.5.0.”

shFbn1-VSMCs [4] = test: ISRIB incubation of Fbn1-silenced primary VSMCs: qPCR; assay type: cell-based, murine; details: ISRIB incubation for 48h
Procedure: as §1, with “The HEK-293T (CRL-1573) and Jurkat (Clone E6-1, TIB-152) cell lines, required for high-titer lentivirus production and lentivirus titration respectively, were purchased from ATCC. The experiments were performed during passages 5-10. All cells tested negative for Mycoplasma.” left out
The GFPT2 and GFP coding sequence was obtained from Origene. […] Transduction efficiency (GFP-expressing cells and Puromycin resistant-cells) and cell death (propidium iodide staining) were quantified by flow cytometry.
Aortas were extracted after perfusion with 5 ml saline solution, and the adventitia layer was discarded. […] The amount of target mRNA in samples was estimated by the 2-CT relative quantification method, using B2M, YWHAZ and PP1A for normalization. Fold ratios were calculated relative to mRNA expression levels from controls.
ISR is a decisive cell response pathway that controls translation and bases a protective response and drive a transcriptional program to maintain and to contribute to organismal fitness. […] First, the inventors evaluated the ISRIB (an ISR-inhibitor) in MFS in vitro. […]

Fbn1^C1039G/+ mice [5] = test: ISRIB by osmotic minipumps in Marfan mouse model: aortic ultrasound, blood pressure; assay type: in vivo; details: 28 days, to normal levels
Procedure: as §4
as §3, with “Mice were trained for BP measurements every day for five consecutive days.” left out, “1.5.0. […]” for “1.5.0.”

[6] = 24-weeks Fbn1^C1039G/+ mice, DON by osmotic minipumps, after 7 days of treatment
[7] = RNA-sequencing on aortas, same cohort as Fig. 3D

Compound: [N-]=[N+]=CC(=O)CC[C@H](N)C(=O)O [DON, 6-diazo-5-oxo-L-norleucine]
- IRS signaling through Atf4, Atf6 protein and mRNA expression (shFbn1-VSMCs [1]; ShFbn1-VSMCs, DON for 48h): decreased
- O-GlcNac (shFbn1-VSMCs [1]; shFbn1-VSMCs, DON 10nM, 48h, immunoblot and flow cytometry): efficiently reduced
- mRNA levels of classical MFS genes such as Tgb1, Fgf2 growth factors, osteopontin (spp1) and colagen1 (Col1a1) (shFbn1-VSMCs [1]; shFbn1-VSMCs, DON incubation): decreased
- Aortic dilation (Fbn1^C1039G/+ mice [2]; [6]): completely normalized
- blood pressure (Fbn1^C1039G/+ mice [2]; [6]): completely normalized
- O-GlcNac levels and WGA staining in aortic tissue (Fbn1^C1039G/+ mice [2]; DON treatment for 28 days): reduces
- ISR (p-PERK, p-eIF2α, ATF4 staining and protein levels; Atf4, Atf6, Tgfb2 mRNA) in aortas (Fbn1^C1039G/+ mice [2]; MFS-mice, same cohort as Fig. 3D): inhibited
- expression levels of genes related to ER-stress and ISR such as Atf4, Chop, Xbpl, Hsp90b1 and Atf4-dependent genes (Fbn1^C1039G/+ mice [2]; [7]): decreased
- expression of conventional MFS-affected genes (TGFβ pathway and ECM-related proteins such as Tgfb3, Cnn2, Serpine1, Thbs1, Pdgfa, Acan, Vcan Sdc4) (Fbn1^C1039G/+ mice [2]; [7]): decreased
- histologic features of aortic degeneration in MFS, such as medial thickening, elastic fiber fragmentation, GAG and PG deposition (Fbn1^C1039G/+ mice [2]; after 28 days of DON-treatment): restored
- TGFB upstream regulator, activation Z-score (Fbn1^C1039G/+ mice [2]; ingenuity analysis of aortic RNA-seq, DON treated mice, p-value 2,5710^-11): -9,913

Compound: N[C@H]1C(O)O[C@H](CO)[C@@H](O)[C@@H]1O (stereo partly shown) [Glucosamine]
- histological features of CMD (Fbn1^+/+ mice; elastin fiber fragmentation and Alcian blue staining after 28 days of treatment): reproduced
- aortic diameter (Fbn1^+/+ mice; glucosamine in drinking water (5%), 28 days, effect after 7 days of treatment): significantly increased
- systolic blood pressure (BP) (Fbn1^+/+ mice; glucosamine in drinking water (5%), after 7 days of treatment): decreased
- aortic architecture such as elastin fiber fragmentation and amorphous matrix accumulation (Fbn1^C1039G/+ mice [3]; after 28 days of treatment): worsen
- aortic diameter (Fbn1^C1039G/+ mice [3]; glucosamine in drinking water (5%), compared with control Fbn1^C1039G/+ mice): increased

Compound: O=C(COc1ccc(Cl)cc1)N[C@H]1CC[C@H](NC(=O)COc2ccc(Cl)cc2)CC1 [ISRIB]
- Atf4, Atf6 mRNA levels (shFbn1-VSMCs [4]): reduces
- aortic diameter (Fbn1^C1039G/+ mice [5]): decreases
- blood pressure (Fbn1^C1039G/+ mice [5]): decreases
